Reference: patent publication US10532977B2, “Small molecule inhibitors of protein tyrosine phosphatases and uses thereof” (Indiana University Research and Technology Corporation, priority 2015, dated 2020)

Tested on: mPTPB
Test: IFN-γ induced Erk1/2 phosphorylation in mPTPB transfected Raw264.7 cells
Assay type: cell-based, mouse
Description: Raw264.7 mouse macrophages were cultured in Dulbecco's modified Eagle's medium (DMEM) supplemented with 10% FBS (Invitrogen), penicillin (50 units/mL), and streptomycin (50 μg/mL) under a humidified atmosphere containing 5% CO2 at 37° C. Transfected Raw264.7 cells (Vector, WT-mPTPB) were seeded in a 12-well plate at a density of 4×10^4 cells/well. The following day cells were treated with mPTPB inhibitor 11a for 1 hour, then stimulated with IFN-γ (200 U/ml) for 1 hour. Subsequently, the cells were washed with ice-cold phosphate buffered saline, and lysed with lysis buffer on ice for 30 minutes. Cell lysate was then cleared by centrifuging at 13,000 rpm for 15 minutes. The phosphorylation of ERK1/2 was detected by Western blotting.

Q: Which “Erk1/2 phosphorylation in mPTPB transfected Raw264.7 cells” value (8 nM, 16 nM, and 32 nM) does the source give for `O=C(C(c1ccccc1)S(=O)(=O)O)N1CCCC2CCCCC21` (centres unmarked) [Compound L319N53] here?
A: increased Erk1/2 phosphorylation

Q: And the “Erk1/2 phosphorylation in vector cells” value (Raw264.7 vector cells)?
A: no effect
